Laboratory results as given in patent US20250295615A1 (BOARD OF REGENTS, THE UNIVERSITY OF TEXAS SYSTEM, priority 2021, published 2025).

What was measured:
[1] = Phase 1 clinical trial, safety laboratory values (week 2 minus baseline); assay type: in vivo, human
Text: Laboratory Safety values. We perform laboratory analysis at baseline and at the end of the two-week study. We then subtracted the values (week 2-baseline) to obtain the differences for each participant.

[2] = human, in vivo
Experimental: (§1) Study Outcomes: Safety was compared to evaluate the number, frequency, duration, and relation of toxicity events to CURC and UA, as defined by the Common Terminology Criteria for Adverse Events (CTCAE) v 4.03. […] We also investigated the impact on the microbiome in a paired analysis for change and overall theme of imputed bacterial function.
Measurement of Compounds: The compounds and their metabolites were measured using an UHPLC-MS/MS system performed on a Hybrid quadrupole-Orbitrap mass spectrometer (Q Exactive, Thermo Scientific, Waltham, MA, USA) hyphenated with a Thermo Scientific Vanquish Flex ultrahigh-pressure liquid chromatography (UHPLC) system via electrospray ionization source. For the parallel reaction monitoring (PRM) scan, the resolution, auto gain control (AGC) target, and maximum injection time (IT) were set at 17500, 2e5, and 100 ms. The All-Ion Fragmentation (AIF) scan consisted of a scan range of m/z 100-750 with NCE 10. The resolution, AGC target, and maximum IT for the AIF scan were set at 70000, 3e6, and 200 ms, respectively.
Statistical Analysis: Demographics between groups was compared using the Fischer Exact test for categorical variables and the Student's t-test for continuous variables. Safety laboratory values were analyzed using a paired t-test for differences, with significance set at p<0.05. ANOVA was used to compare plasma levels of UA, CURC, and CURC metabolites. Least significant difference (LSD) was used as the post hoc analysis test to compare values between groups.

prostate cancer = settings: mouse, in vivo; cited from earlier work
prostate tumor = settings: 7-year period, men taking the drug daily; cited from earlier work
[3] = human, in vivo; remark: listed apart in the source
Text: Population and Recruitment: We recruited healthy men enrolled in the SABOR study, which is a community-based prostate cancer screening cohort. The San Antonio Biomarkers of Risk (SABOR) study cohort was funded by the National Cancer Institute Early Detection Research Network-sponsored Clinical and Epidemiologic Validation Center since its nascent enrollment in 2000 (IRB #HSC20000030H). A separate IRB was approved for the phase 1 trial (IRB #HSC20190940H). Subjects had no prior diagnosis of prostate cancer at the time of enrollment and varied prostate cancer risk profiles. We used the local UT Health San Antonio Data Safety and Monitoring Board (DSMB).
as §1
Common Terminology Criteria for Adverse Events (CTCAE) v 4.03. […] A creatinine rise would indicate kidney dysfunction.

[4] = week 2 minus baseline, median (IQR), n = 6

C[C@H]1[C@H](C)CC[C@]2(C(=O)O)CC[C@]3(C)C(=CC[C@@H]4[C@@]5(C)CC[C@H](O)C(C)(C)[C@@H]5CC[C@]43C)[C@H]12 [Ursolic Acid, ursolic acid]
Difference in ALT [1, 4]: 1.5 (1.0 to 12.8) | Difference in AST [1, 4]: 2.0 (−1.3 to 3.3) | Difference in Albumin [1, 4]: 0.0 (−0.1 to 0.2) | Difference in Alkaline Phosphatase [1, 4]: 2.5 (−2.5 to 5.0) | Difference in Bicarbonate [1, 4]: 1.0 (−1.5 to 3.0) | Difference in Bilirubin [1, 4]: 0.0 (−0.08 to 0.15) | Difference in Calcium [1, 4]: 0.03 (−0.05 to 0.48) | Difference in Chloride [1, 4]: −1.0 (−2.75 to 1.75) | Difference in Creatinine [1, 4]: −0.08 (−0.33 to 0.12) | Difference in Glomerular Filtration Rate (GFR) [1, 4]: −3.5 (−10.3 to 3.5) | Difference in Hematocrit [1, 4]: 1.55 (−0.85 to 2.85) | Difference in Hemoglobin [1, 4]: 0.20 (−0.33 to 0.58) | Difference in Platelets [1, 4]: 9.5 (2.5 to 27) | Difference in Sodium [1, 4]: 0.5 (−1.5 to 2.25) | Plasma levels in words (FIG. 2) [2]: modest absorption of ursolic acid | Median plasma values of CURC and its metabolites ([2]; male, 14 day): 0.0 ng/mL | Effect on prostate cancer in TRAMP mice (prostate cancer): inhibited initiation, progression, and metastasis of prostate cancer

CC(C)(C)NC(=O)[C@H]1CC[C@H]2[C@@H]3CC[C@H]4NC(=O)C=C[C@]4(C)[C@H]3CC[C@]12C [Finasteride]
Reduction in prostate tumor prevalence (prostate tumor): 24.8%

COc1cc(/C=C/C(=O)CC(=O)/C=C/c2ccc(O)c(OC)c2)ccc1O [Curcumin, curcumin]
Relationship To Study Treatment [3]: Unlikely | GFR after 2 weeks, individual participant ([1]; curcumin arm participant baseline 45, CurcUA participant baseline 76): 46 | Difference in ALT [1, 4]: −1.0 (−3.25 to 0.0) | Difference in AST [1, 4]: 2.0 (−2.0 to 3.3) | Difference in Albumin [1, 4]: 0.05 (−0.05 to 0.2) | Difference in Alkaline Phosphatase [1, 4]: −2.0 (−5.5 to 9.3) | Difference in Bicarbonate [1, 4]: −1.5 (−4.3 to 0.0) | Difference in Bilirubin [1, 4]: −0.1 (−0.3 to 0.0) | Difference in Calcium [1, 4]: 0.2 (−0.15 to 0.32) | Difference in Chloride [1, 4]: −0.5 (−1.3 to 0.8) | Difference in Creatinine [1, 4]: 0.07 (−0 07 to 0.16) | Difference in Glomerular Filtration Rate (GFR) [1, 4]: −5.5 (−12.0 to 4.5) | Difference in Hematocrit [1, 4]: 0.25 (−1.45 to 2.35) | Difference in Hemoglobin [1, 4]: 0.20 (−0.30 to 0.55) | Difference in Platelets [1, 4]: 7.0 (−5 to 31.5) | Difference in Sodium [1, 4]: 0.0 (−1.5 to 1.0) | Difference in White blood cell (WBC) [1, 4]: 0.15 (−0.43 to 0.68) | Plasma levels in words (FIG. 2) [2]: Minimal amounts of the parent curcumin compound and large amounts of curcumin glucuronide
